The subject of this data set is CCRIS mutagenicity, Ames/micronucleus/aberration tests. Put plainly: CCRIS mutagenicity studies.
Setting [1] is: Test System: AMES SALMONELLA TYPHIMURIUM, Strain/Indicator: TA98, Metabolic Activation: NONE, Method: STANDARD PLATE.
Setting [2] is: Test System: AMES SALMONELLA TYPHIMURIUM, Strain/Indicator: TA98, Metabolic Activation: RAT, LIVER, S-9, AROCLOR 1254, Method: STANDARD PLATE.
The mark [3] stands for this setting: Test System: AMES SALMONELLA TYPHIMURIUM, Strain/Indicator: TA100, Metabolic Activation: NONE, Method: STANDARD PLATE.
Where [4] appears, read: Test System: AMES SALMONELLA TYPHIMURIUM, Strain/Indicator: TA100, Metabolic Activation: RAT, LIVER, S-9, AROCLOR 1254, Method: STANDARD PLATE.
The mark [5] stands for this setting: Test System: AMES SALMONELLA TYPHIMURIUM, Strain/Indicator: TA1535, Metabolic Activation: NONE, Method: STANDARD PLATE.
[6] abbreviates: Test System: AMES SALMONELLA TYPHIMURIUM, Strain/Indicator: TA1535, Metabolic Activation: RAT, LIVER, S-9, AROCLOR 1254, Method: STANDARD PLATE.
[7] abbreviates: Test System: AMES SALMONELLA TYPHIMURIUM, Strain/Indicator: TA1537, Metabolic Activation: NONE, Method: STANDARD PLATE.
Where [8] appears, read: Test System: AMES SALMONELLA TYPHIMURIUM, Strain/Indicator: TA1537, Metabolic Activation: RAT, LIVER, S-9, AROCLOR 1254, Method: STANDARD PLATE.
[9] abbreviates: Test System: AMES SALMONELLA TYPHIMURIUM, Strain/Indicator: TA1538, Metabolic Activation: NONE, Method: STANDARD PLATE.
Setting [10] is: Test System: AMES SALMONELLA TYPHIMURIUM, Strain/Indicator: TA1538, Metabolic Activation: RAT, LIVER, S-9, AROCLOR 1254, Method: STANDARD PLATE.

Mutagenic call data for three compounds are collected here from PubChem BioAssay AID1259407 (Chemical Carcinogenesis Research Information System (CCRIS), 2018).

SMILES strings stand for the structures. The source made the active and inactive calls. No rule for the calls is given here.

Consider `Oc1cccc(Nc2ccccc2)c1`, for which the mutagenic call is “inactive; negative” (Test System: AMES SALMONELLA TYPHIMURIUM, Strain/Indicator: TA97, Metabolic Activation: HAMSTER, LIVER, S-9, AROCLOR 1254 (10%), Method: PREINCUBATION); “inactive; negative” (Test System: AMES SALMONELLA TYPHIMURIUM, Strain/Indicator: TA97, Metabolic Activation: HAMSTER, LIVER, S-9, AROCLOR 1254 (30%), Method: PREINCUBATION); “inactive; negative” (Test System: AMES SALMONELLA TYPHIMURIUM, Strain/Indicator: TA97, Metabolic Activation: NONE, Method: PREINCUBATION); “inactive; negative” (Test System: AMES SALMONELLA TYPHIMURIUM, Strain/Indicator: TA97, Metabolic Activation: RAT, LIVER, S-9, AROCLOR 1254 (10%), Method: PREINCUBATION); “inactive; negative” (Test System: AMES SALMONELLA TYPHIMURIUM, Strain/Indicator: TA97, Metabolic Activation: RAT, LIVER, S-9, AROCLOR 1254 (30%), Method: PREINCUBATION); “inactive; negative” (Test System: AMES SALMONELLA TYPHIMURIUM, Strain/Indicator: TA98, Metabolic Activation: HAMSTER, LIVER, S-9, AROCLOR 1254 (10%), Method: PREINCUBATION). For the same compound, the mutagenic call was “inactive; negative” (Test System: AMES SALMONELLA TYPHIMURIUM, Strain/Indicator: TA98, Metabolic Activation: HAMSTER, LIVER, S-9, AROCLOR 1254 (30%), Method: PREINCUBATION); “inactive; negative” (Test System: AMES SALMONELLA TYPHIMURIUM, Strain/Indicator: TA98, Metabolic Activation: NONE, Method: PREINCUBATION); “inactive; negative” (Test System: AMES SALMONELLA TYPHIMURIUM, Strain/Indicator: TA98, Metabolic Activation: RAT, LIVER, S-9, AROCLOR 1254 (10%), Method: PREINCUBATION); “inactive; negative” (Test System: AMES SALMONELLA TYPHIMURIUM, Strain/Indicator: TA98, Metabolic Activation: RAT, LIVER, S-9, AROCLOR 1254 (30%), Method: PREINCUBATION); “inactive; negative” (Test System: AMES SALMONELLA TYPHIMURIUM, Strain/Indicator: TA100, Metabolic Activation: HAMSTER, LIVER, S-9, AROCLOR 1254 (10%), Method: PREINCUBATION); “inactive; negative” (Test System: AMES SALMONELLA TYPHIMURIUM, Strain/Indicator: TA100, Metabolic Activation: HAMSTER, LIVER, S-9, AROCLOR 1254 (30%), Method: PREINCUBATION). The mutagenic call was “inactive; negative” (Test System: AMES SALMONELLA TYPHIMURIUM, Strain/Indicator: TA100, Metabolic Activation: NONE, Method: PREINCUBATION); “inactive; negative” (Test System: AMES SALMONELLA TYPHIMURIUM, Strain/Indicator: TA100, Metabolic Activation: RAT, LIVER, S-9, AROCLOR 1254 (10%), Method: PREINCUBATION); “inactive; negative” (Test System: AMES SALMONELLA TYPHIMURIUM, Strain/Indicator: TA100, Metabolic Activation: RAT, LIVER, S-9, AROCLOR 1254 (30%), Method: PREINCUBATION); “inactive; negative” (Test System: AMES SALMONELLA TYPHIMURIUM, Strain/Indicator: TA1535, Metabolic Activation: HAMSTER, LIVER, S-9, AROCLOR 1254 (10%), Method: PREINCUBATION); “inactive; negative” (Test System: AMES SALMONELLA TYPHIMURIUM, Strain/Indicator: TA1535, Metabolic Activation: HAMSTER, LIVER, S-9, AROCLOR 1254 (30%), Method: PREINCUBATION); “inactive; negative” (Test System: AMES SALMONELLA TYPHIMURIUM, Strain/Indicator: TA1535, Metabolic Activation: NONE, Method: PREINCUBATION). In addition, the mutagenic call is “inactive; negative” (Test System: AMES SALMONELLA TYPHIMURIUM, Strain/Indicator: TA1535, Metabolic Activation: RAT, LIVER, S-9, AROCLOR 1254 (10%), Method: PREINCUBATION) and “inactive; negative” (Test System: AMES SALMONELLA TYPHIMURIUM, Strain/Indicator: TA1535, Metabolic Activation: RAT, LIVER, S-9, AROCLOR 1254 (30%), Method: PREINCUBATION).
Turning to `O=C(O)c1cc(O)c2c(c1)C(=O)c1cccc(O)c1C2=O`, the mutagenic call is, setting by setting: (Test System: AMES SALMONELLA TYPHIMURIUM, Strain/Indicator: TA97A, Metabolic Activation: NONE, Method: STANDARD PLATE) “inactive; negative”; (Test System: AMES SALMONELLA TYPHIMURIUM, Strain/Indicator: TA97A, Metabolic Activation: RAT, LIVER, S-9, AROCLOR 1254, Method: STANDARD PLATE) “inactive; negative”; under setting [1], “inactive; negative”; under setting [2], “inactive; negative”; under setting [3], “inactive; negative”; under setting [4], “inactive; negative”. In addition, the mutagenic call is “inactive; negative” (Test System: AMES SALMONELLA TYPHIMURIUM, Strain/Indicator: TA102, Metabolic Activation: NONE, Method: STANDARD PLATE); “inactive; negative” (Test System: AMES SALMONELLA TYPHIMURIUM, Strain/Indicator: TA102, Metabolic Activation: RAT, LIVER, S-9, AROCLOR 1254, Method: STANDARD PLATE); “inactive; negative” under setting [5]; “inactive; negative” under setting [6]; “inactive; negative” under setting [7]; “inactive; negative” under setting [8]. Further, the mutagenic call by setting is: under setting [9], “inactive; negative”; under setting [10], “inactive; negative”; (Test System: Ames Salmonella typhimurium, Strain/Indicator: TA102, Metabolic Activation: None, Method: Preincubation) “active; positive”; (Test System: Ames Salmonella typhimurium, Strain/Indicator: TA102, Metabolic Activation: Rat, Liver, S-9, Aroclor 1254 in 0.154 M KCl, Method: Preincubation) “active; positive”; (Test System: MOUSE LYMPHOMA, Strain/Indicator: L5178Y (TK+/TK-), Metabolic Activation: NONE, Method: SUSPENSION/PLATE) “inactive; negative”; (Test System: MOUSE LYMPHOMA, Strain/Indicator: L5178Y (TK+/TK-), Metabolic Activation: RAT, LIVER, S-9, AROCLOR 1254, Method: SUSPENSION/PLATE) “inactive; negative”.
In the case of `O=[N+]([O-])c1ccc(N=Nc2ccc(N(CCO)CCO)cc2)c([N+](=O)[O-])c1`, the mutagenic call was “active; positive” under setting [1]; “active; positive” under setting [2]; “active; positive” under setting [3]; “active; positive” under setting [4]; “active; positive” under setting [5]; “active; positive” under setting [6]. The mutagenic call under setting [7] is “active; positive”; the mutagenic call under setting [8] was “active; positive”; the mutagenic call under setting [9] was “active; positive”; the mutagenic call under setting [10] was “active; positive”; the mutagenic call (Test System: CHINESE HAMSTER V-79, Strain/Indicator: V-79 (HGPRT)/6-THIOGUANINE, Metabolic Activation: RAT, LIVER, S-9, AROCLOR 1254) is “active; positive”; the mutagenic call (Test System: CHINESE HAMSTER V-79, Strain/Indicator: V-79/6-THIOGUANINE, Metabolic Activation: NONE) was “inactive; negative”. Further, the mutagenic call (Test System: UDS RAT HEPATOCYTES, Strain/Indicator: THY INCORP, Metabolic Activation: NONE, Method: AUTORADIOGRAPHY) was “inactive; negative”.
